Our source for the EC50 values is US20120128630A1, “1-(6 MEMBERS AZO-HETEROCYCLIC)-PYRROLIN-2-ONE COMPOUNDS AS INHIBITORS OF HEPATITIS C NS5B POLYMERASE, THE PHARAMACEUTICAL COMPOSITION THEREOF AND THEIR THERAPEUTIC USE” (priority 2009, published 2012).

In the assay the target is T1, HCV NS5B genotype 1b (Hepatitis C virus genotype 1b, UniProt Q9WMX2).
T1 construct: The protein was expressed with a 21 amino acid C-terminal deletion to remove transmembrane domain; expressed in transfected cells; host or cells: Huh-7
The experiment in a line: 3D-SCREEN assay (NS5B 3D-Screen platform, luciferase reporter gene). In kind it is cell-based. The source says: cDNA encoding HCV NS5B genotype 1b, was cloned in frame with Gal4-DNA Binding Domain. The protein was expressed with a 21 amino acid C-terminal deletion to remove transmembrane domain. Expression of NS5BΔ21/Gal4 DBD fusion protein was under control of SV40 early promoter. 3D-Sensor peptide was cloned in frame with VP16 activation domain. Expression of 3D-Sensor/VP16 AD fusion protein was under control of CMV promoter. Expression of the firefly luciferase reporter gene was inducible by the [Target protein/conformation sensitive peptide/VP16AD] complex.
It is a single-target, cell based assay. Briefly, expression of a reporter gene depends on the interaction of a short peptide, thereafter named 3D-Sensor, and native conformation of the target protein. Whenever the conformation of the target protein is modified, interaction between 3D-sensor and target protein is disrupted and reporter gene is not expressed anymore. Conformation modifiers are identified by loss of expression of reporter gene. NS5B 3D-Screen platform was generated in Huh-7 cell lines by transient transfection of three expression vectors encoding respectively
(i) HCV NS5BΔ21/Gal4-DBD fusion protein
(ii) the 3D-sensor peptide I4/VP16 fusion protein
(iii) the firefly luciferase reporter gene
Huh-7 cells were dissociated the day before transfection and seeded in T175 flasks at a density of 10^7 cells in 30 ml culture medium. Equimolar ratios of vectors were transfected in cell according to optimized jetPEI transfection protocol (PolyPlus Transfection, Illkirch, France) and 10 μg total DNA/10^6 cells. Transfection was performed for 2 hours at 37° C. and 5% CO2 in a humidified atmosphere. After two hours cells were dissociated and seeded in 96 wells plates at a density of 25,000 cells per well and 90 μl culture medium. 10 μl of compounds to be tested were added 2 hours after seeding. Final concentration of DMSO was 1%. Cells were incubated in the presence of compounds for 24 hours after which expression of firefly luciferase reporter gene was quantified. Briefly, culture medium was removed and cells were lysed by addition of 100 μl of lysis buffer containing 125 mM Tris Phosphate ph 7.8, 10 mM EDTA, 5 mM DTT, 50% glycerol and 5% Triton. Plates were vortexed 10 min at 1300 rpm. Cell lysat was transferred in OpaqueWhite Assay 96 well Flat Bottom plates. 100 μl of luciferin solution 1× were added to each well. Luciferin solution contained 40 mM Tris Phosphate ph 7.8, 0.2 mM EDTA, 67 mM DTT, 2.14 mM MgCl2, 5.4 mM MgSO4, 4.7×10^−4 M luciferin, 5.3×10^−4 M ATP and 2.7×10^−4 M Acetyl co enzyme A. Luminescence was immediately measured with Berthold Microlumat Plus LB 96V luminometer with an integration of 0.5 sec. Inhibition was calculated using the formula: % inhibition=(1−(read/average max))*100. Average max=signal in absence of compound

The mark [1] stands for this setting: EC50_3DS_NS5B, Table 1, 3D-SCREEN assay results, Huh-7 cells, 24 hours with compound, firefly luciferase reporter.
[2] abbreviates: EC50_3DS_NS5B, Table 2, titled Replicon assay results.

Read-outs that look alike come from different tables or passages of the source.

In the case of “5-[4-(1,1-difluoro-ethoxy)-phenyl]-3-hydroxy-4-(4-isopropyl-benzoyl)-1-(6-methyl-pyridazin-3-yl)-1,5-dihydro-pyrrol-2-one [Example 174]”, the EC50 (Table 2, titled Replicon assay results, read-out: EC50_3DS_NS5B) was less than 10 µM.
On to `CON=C(C1=C(O)C(=O)N(c2ccc(C)nn2)C1c1ccc(C(C)C)cc1)c1ccc(C)cc1` (mixture of isomers) [Example 53, 3-hydroxy-5-(4-isopropyl-phenyl)-4-(methoxyimino-p-tolyl-methyl)-1-(6-methyl-pyridazin-3-yl)-1,5-dihydro-pyrrol-2-one], for which the EC50 under setting [1] was 5 µM.
Still for that read-out and setting: the value for `Cc1ccc(C(=O)C2=C(O)C(=O)N(c3ccc(C#N)cn3)C2c2ccc(C(C)C)cc2)cc1` (stereo not shown) [Example 7, 6-[3-hydroxy-5-(4-isopropyl-phenyl)-4-(4-methyl-benzoyl)-2-oxo-2,5-dihydro-pyrrol-1-yl]-nicotinonitrile] was 9 µM; that for `Cc1ccc(C(=O)C2=C(O)C(=O)N(c3cccnn3)C2c2ccc(C(C)C)cc2)cc1` (stereo not shown) [Example 9, 3-hydroxy-5-(4-isopropyl-phenyl)-4-(4-methyl-benzoyl)-1-pyridazin-3-yl-1,5-dihydro-pyrrol-2-one] was 7 µM.
Take `COc1ccc(C(=O)C2=C(O)C(=O)N(c3ccc(C)nn3)C2c2ccc(C(C)(C)C)cc2)cc1` (stereo not shown) [Example 10, 5-(4-tert-butyl-phenyl)-3-hydroxy-4-(4-methoxy-benzoyl)-1-(6-methyl-pyridazin-3-yl)-1,5-dihydro-pyrrol-2-one]: the EC50 under setting [1] came to 3 µM.
In the case of `Cc1ccc(C(=O)C2=C(O)C(=O)N(c3ccc(C)nn3)C2c2cccc(C(C)C)c2)cc1` (stereo not shown) [Example 29, 3-hydroxy-5-(3-isopropyl-phenyl)-4-(4-methyl-benzoyl)-1-(6-methyl-pyridazin-3-yl)-1,5-dihydro-pyrrol-2-one], the EC50 under setting [1] stood at 6 µM.
Take `Cc1ccc(N2C(=O)C(O)=C(C(=O)c3ccc(N(C)C)cc3)C2c2ccc(C(C)C)cc2)nn1` (stereo not shown) [Example 35, 4-(4-dimethylamino-benzoyl)-3-hydroxy-5-(4-isopropyl-phenyl)-1-(6-methyl-pyridazin-3-yl)-1,5-dihydro-pyrrol-2-one]: the EC50 under setting [1] turned out to be 3 µM.
Still for that read-out and setting: with `Cc1ccc(C(=O)C2=C(O)C(=O)N(c3ccc(C)nn3)C2c2ccc(-c3ccccc3)cc2)cc1` (stereo not shown) [Example 42, 5-biphenyl-4-yl-3-hydroxy-4-(4-methyl-benzoyl)-1-(6-methyl-pyridazin-3-yl)-1,5-dihydro-pyrrol-2-one] the figure was 4 µM; with `Cc1ccc(N2C(=O)C(O)=C(C(=O)c3ccc(C(C)C)cc3)C2c2ccc(C(C)C)cc2)nc1` (stereo not shown) [Example 44, 3-hydroxy-4-(4-isopropyl-benzoyl)-5-(4-isopropyl-phenyl)-1-(5-methyl-pyridin-2-yl)-1,5-dihydro-pyrrol-2-one], 2 µM.
For the molecule `Cc1ccc(N2C(=O)C(O)=C(C(=O)c3ccc(C(C)C)cc3)C2c2ccc(-c3ccccc3)cc2)nn1` (stereo not shown) [Example 45, 5-biphenyl-4-yl-3-hydroxy-4-(4-isopropyl-benzoyl)-1-(6-methyl-pyridazin-3-yl)-1,5-dihydro-pyrrol-2-one], under setting [1], the EC50 came to 4 µM.
The same measure, in the same setting: with `Cc1ccc(N2C(=O)C(O)=C(C(=O)c3ccc(N(C)C)cc3)C2c2ccc(OC(F)(F)F)cc2)nn1` (stereo not shown) [Example 49, 4-(4-dimethylamino-benzoyl)-3-hydroxy-1-(6-methyl-pyridazin-3-yl)-5-(4-trifluoromethoxy-phenyl)-1,5-dihydro-pyrrol-2-one] the figure was 1 µM.
Regarding `Cc1ccc(N2C(=O)C(O)=C(C(=O)c3ccc(C(F)(F)F)cc3)C2c2ccc(C(F)(F)F)cc2)nn1` (stereo not shown) [Example 95, 3-hydroxy-1-(6-methyl-pyridazin-3-yl)-4-(4-trifluoromethyl-benzoyl)-5-(4-trifluoromethyl-phenyl)-1,5-dihydro-pyrrol-2-one], the EC50 under setting [2] was less than 10 µM.
Turning to `Cc1ccc(N2C(=O)C(O)=C(C(=O)c3ccc(OC(F)(F)F)cc3)C2c2ccc(C(C)C)cc2)cn1` (stereo not shown) [Example 97, 5-[3-hydroxy-5-(4-isopropyl-phenyl)-2-oxo-4-(4-trifluoromethoxy-benzoyl)-2,5-dihydro-pyrrol-1-yl]-2-methyl-pyridinium; chloride], the EC50 (read-out: EC50_3DS_NS5B, Table 2, titled Replicon assay results) was less than 10 µM.
On to `COc1ccc(C(=O)C2=C(O)C(=O)N(c3ccc(C)nn3)C2c2ccc(OC(C)C)cc2)cc1` (stereo not shown) [Example 100, 3-hydroxy-5-(4-isopropoxy-phenyl)-4-(4-methoxy-benzoyl)-1-(6-methyl-pyridazin-3-yl)-1,5-dihydro-pyrrol-2-one], for which the EC50 under setting [2] is less than 10 µM.
With `Cc1ccc(N2C(=O)C(O)=C(C(=O)c3ccc(OC(C)C)cc3)C2c2ccc(OC(C)C)cc2)nn1` (stereo not shown) [Example 109, 3-hydroxy-4-(4-isopropoxy-benzoyl)-5-(4-isopropoxy-phenyl)-1-(6-methyl-pyridazin-3-yl)-1,5-dihydro-pyrrol-2-one], the EC50 under setting [2] was less than 10 µM.
The same measure, in the same setting: with `Cc1ccc(N2C(=O)C(O)=C(C(=O)c3ccc(C(C)C)cc3)C2c2ccc(CC(C)C)cc2)nn1` (stereo not shown) [Example 136, 3-hydroxy-5-(4-isobutyl-phenyl)-4-(4-isopropyl-benzoyl)-1-(6-methyl-pyridazin-3-yl)-1,5-dihydro-pyrrol-2-one] the figure was less than 10 µM.
The same measure, in the same setting: the value for `Cc1ccc(N2C(=O)C(O)=C(C(=O)c3ccc(C(C)C)cc3)C2c2ccc(Br)cc2)nn1` (stereo not shown) [Example 172, 5-(4-bromo-phenyl)-3-hydroxy-4-(4-isopropyl-benzoyl)-1-(6-methyl-pyridazin-3-yl)-1,5-dihydro-pyrrol-2-one] was less than 1 µM; that for `Cc1ccc(N2C(=O)C(O)=C(C(=O)c3ccc(C(C)C)cc3)C2c2ccc(SC(C)C)cc2)nn1` (stereo not shown) [Example 173, 3-hydroxy-4-(4-isopropyl-benzoyl)-5-(4-isopropylsulfanyl-phenyl)-1-(6-methyl-pyridazin-3-yl)-1,5-dihydro-pyrrol-2-one] was less than 1 µM.
The same measure, in the same setting: the value for `Cc1ccc(N2C(=O)C(O)=C(C(=O)c3ccc(C#N)cc3)C2c2ccc(OC(F)(F)F)cc2)nn1` (stereo not shown) [Example 176, 4-[4-hydroxy-1-(6-methyl-pyridazin-3-yl)-5-oxo-2-(4-trifluoromethoxy-phenyl)-2,5-dihydro-1H-pyrrole-3-carbonyl]-benzonitrile] was less than 10 µM; that for `Cc1ccc(N2C(=O)C(O)=C(C(=O)c3ccc(N4CCCC4)cc3)C2c2ccc(OC(C)(F)F)cc2)nn1` (stereo not shown) [Example 183, 5-[4-(1,1-difluoro-ethoxy)-phenyl]-3-hydroxy-1-(6-methyl-pyridazin-3-yl)-4-(4-pyrrolidin-1-yl-benzoyl)-1,5-dihydro-pyrrol-2-one] was less than 10 µM.
Under setting [2], `Cc1ccc(N2C(=O)C(O)=C(C(=O)c3ccc(N4CCCC4)cc3)C2c2ccc(OC(F)(F)F)cc2)nn1` (stereo not shown) [Example 184, 3-hydroxy-1-(6-methyl-pyridazin-3-yl)-4-(4-pyrrolidin-1-yl-benzoyl)-5-(4-trifluoromethoxy-phenyl)-1,5-dihydro-pyrrol-2-one] returned an EC50 of less than 10 µM.
On the same count and under the same terms, the value for `Cc1ccc(N2C(=O)C(O)=C(C(=O)c3ccc(C(C)C)cc3)C2c2ccc(Oc3cc(C)on3)cc2)nn1` (stereo not shown) [Example 185, 3-hydroxy-4-(4-isopropyl-benzoyl)-5-[4-(5-methyl-isoxazol-3-yloxy)-phenyl]-1-(6-methyl-pyridazin-3-yl)-1,5-dihydro-pyrrol-2-one] was less than 10 µM.
